Data from US7560252B2, “Borrelidin-producing polyketide synthase and its use” (priority 2002, dated 2009).
Converted amounts (≈) assume the structure as drawn.

Columns and labels:
[1] = tested on: endothelial cell proliferation and endothelial capillary formation; settings: with respect to borrelidin; cited from earlier work
[2] = tested on: Lewis lung adenocarcinoma; settings: cited from earlier work
[3] = tested on: mouse colon adenocarcinoma cells; settings: subtoxic dose; cited from earlier work
capillary tube formation = settings: rat aorta matrix culture model; cited from earlier work
B16-BL6 melanoma cells = settings: same dosage (1.8 mg/kg); cited from earlier work
[4] = tested on: WiDr cell lines of human colon cancer; settings: JP 9-227,549 and JP 8-173,167; cited from earlier work
caspase-8 = settings: cited from earlier work
protein synthesis = settings: cited from earlier work
[5] = tested on: human umbilical vein endothelial cells (HUVEC); settings: cited from earlier work
[6] = tested on: haploid and diploid cells; settings: at concentrations that do not affect gross protein biosynthesis; cited from earlier work
[7] = tested on: PC-3 cell lines of human prostate cancer; settings: JP 9-227,549 and JP 8-173,167; cited from earlier work
WiDr cells = settings: 1.8 mg/kg by intraperitoneal injection; higher degree than TNP-470; cited from earlier work
caspase-3 = settings: cited from earlier work
S. albus J1074/pEM4A = assay: soaked disk bioassay, control strain; assay type: cell-based, Streptomyces albus J1074; settings: disks with borrelidin at 100 & 200 μg/ml, Bennett's agar, overnight at 30° C.
Text: The self-resistance of S. parvulus strains to borrelidin is most probably due to the product of borO, which encodes a threonyl tRNA synthetase homologue. Threonyl-tRNA synthetase is the molecular target of borrelidin in sensitive strains (Paetz & Ness, 1973). It is predicted that BorO is resistant to the action of borrelidin, and acts to produce threonyl-tRNAs in cells that make borrelidin, effectively complementing the normal threonyl-tRNA which are inhibited. To verify this hypothesis borO was amplified by PCR and cloned in to the expression vector pEM4A, which puts borO under the control of the strong constitutive promoter ermE* (example 26). The resulting vector pborOR was then transformed into the borrelidin-sensitive strain Streptomyces albus J1074 (Chater & Wilde, 1980).
Resistance to borrelidin was assayed on Bennett's agar containing apramycin at 25 μg/ml. Spores of S. albus J1074/pborOR and the control S. albus J1074/pEM4A were spread onto plates and then disks containing borrelidin at 100 & 200 μg/ml were laid upon the lawn of spores and incubated overnight at 30° C.

C[C@@H]1C[C@H](C)C[C@H](C)[C@@H](O)CC(=O)O[C@H]([C@@H]2CCC[C@H]2C(=O)OCCN2CCOCC2)C/C=C/C=C(/C#N)[C@H](O)[C@@H](C)C1 [borrelidin-morpholinoethyl ester]
selectivity index, capillary formation inhibitory activity versus cell proliferation [1]: 60 fold

CC1CC(C)CC(C)C(O)CC(=O)OC(C2CCCC2C(=O)NCc2cccnc2)C(C#N)=CC=CCC(O)C(C)C1 (stereo not drawn) [borrelidin-(3-picolylamide)]
increase of micrometastases ([2]; rats, intraperitoneal and per os administration at subtoxic doses): inhibit very considerably | metastasis-forming ability of cells transplanted into mouse spleen [3]: considerably decreased

C[C@@H]1C[C@H](C)C[C@H](C)[C@@H](O)CC(=O)O[C@H]([C@@H]2CCC[C@H]2C(=O)NCCN2CCOCC2)C/C=C/C=C(/C#N)[C@H](O)[C@@H](C)C1 [borrelidin-morpholinoethyl amide]
selectivity index, capillary formation inhibitory activity versus cell proliferation [1]: 6 fold

borrelidin-amide
selectivity index, capillary formation inhibitory activity versus cell proliferation [1]: 37 fold

CC1CC(C)CC(C)C(O)C(C#N)=CC=CCC(C2CCCC2C(=O)OCCc2ccccn2)OC(=O)CC(O)C(C)C1 (stereo not drawn) [borrelidin-(2-pyridyl)-ethyl ester]
selectivity index, capillary formation inhibitory activity versus cell proliferation [1]: 7.5 fold

C[C@@H]1C[C@H](C)C[C@H](C)[C@@H](O)CC(=O)O[C@H]([C@@H]2CCC[C@H]2C(=O)O)C/C=C/C=C(/C#N)[C@H](O)[C@@H](C)C1 [Borrelidin]
IC50 (capillary tube formation): 0.8 nM | IC50 capillary tube formation (capillary tube formation): 0.4 ng/mL (≈ 0.817 nM) | inhibition of the formation of spontaneous lung metastases (B16-BL6 melanoma cells): effective | effectiveness against WiDr cell lines [4]: effective | caspase-8 activation (caspase-8): activate | IC50 for anti-angiogenesis activity lower than for inhibition of protein synthesis (protein synthesis; 0.4 ng/ml versus 20 ng/ml): 50 fold | IC50 inhibition of protein synthesis (protein synthesis; cultured rat cells): 20 ng/mL | IC50 anti-proliferative activity towards HUVEC ([5]; cell growth assay): 6 ng/mL (≈ 12.3 nM) | anti-proliferative activity weaker than the anti-angiogenesis activity ([5]; measured in the same medium): 15 fold | cell cycle arrest in late G1 phase [6]: arrests both haploid and diploid cells in late G1 phase | effectiveness against PC-3 cell lines [7]: effective | propagation of metastatic nodules ([2]; after removal of the primary tumour): weakly inhibited | increment of vascular volume induced by WiDr cells (WiDr cells): significantly reduce the increment of vascular volume | caspase-3 activation (caspase-3): activate | haloes of growth inhibition (S. albus J1074/pEM4A): Haloes indicating inhibition of growth were observed
